This experiment concerns the target T1, EGFR TMLRCS (BaF3-TMLRCS cell line) (Homo sapiens, UniProt P00533, C797S/L858R/T790M).
T1 construct: host or cells: Ba/F3 (BaF3-TMLRCS), maintained under puromycin selection
Put plainly: HTRF Phospho EGFR TMLRCS Assay (Cellular). The format is cell-based. The note with it: BaF3-TMLRCS cells, 4 hours incubation. On the procedure: HTRF Phospho EGFR TMLRCS Assay (Cellular)
BaF3-TMLRCS cell line were obtained from Crownbio (San Diego, CA, USA). Cells were maintained at 37° C., 5% CO2 in RPMI ATCC (Gibco 31870)+2 mM Glutamine+0.5 μg/ml Puromycin supplemented with 10% fetal bovine serum (FBS) (Gibco).
Cells are transferred as above to Greiner Bio-One, Nr. 784-08 micro-titerplate at 20000 cells/well in 12.5 μl of growth medium/well after the plates had been pre-filled with 12.5 nl of DMSO solutions of the to be tested compounds (in dose response) or DMSO only. After spinning the plates at 300×g for 30 seconds the cells were incubated for 4 hours at 37 C, 5% CO2, 95% humidity. The cells were lysed by adding to the compound mix 4 μl/well of the supplemented lysis buffer (Cis-bio, Phospho-EGFR HTRF kit, 64EG1PEH), followed by incubation for 30 min at room temperature with shaking (400 rpm). The plates were then frozen and stored overnight at −80 C. […] The lidded plates were then incubated for 4 h at room temperature before reading the fluorescence emission at 616 and 665 nm using an Envision reader (Perkin Elmer). Data was analyzed in similar fashion as above using the normalized ratio of the 665 to 616 signals multiplied by 10000.
Background: Time-resolved FRET reads energy transfer from a long-lived donor to a nearby acceptor.

T1 sequence (P00533 25-1210 T790M/C797S/L858R): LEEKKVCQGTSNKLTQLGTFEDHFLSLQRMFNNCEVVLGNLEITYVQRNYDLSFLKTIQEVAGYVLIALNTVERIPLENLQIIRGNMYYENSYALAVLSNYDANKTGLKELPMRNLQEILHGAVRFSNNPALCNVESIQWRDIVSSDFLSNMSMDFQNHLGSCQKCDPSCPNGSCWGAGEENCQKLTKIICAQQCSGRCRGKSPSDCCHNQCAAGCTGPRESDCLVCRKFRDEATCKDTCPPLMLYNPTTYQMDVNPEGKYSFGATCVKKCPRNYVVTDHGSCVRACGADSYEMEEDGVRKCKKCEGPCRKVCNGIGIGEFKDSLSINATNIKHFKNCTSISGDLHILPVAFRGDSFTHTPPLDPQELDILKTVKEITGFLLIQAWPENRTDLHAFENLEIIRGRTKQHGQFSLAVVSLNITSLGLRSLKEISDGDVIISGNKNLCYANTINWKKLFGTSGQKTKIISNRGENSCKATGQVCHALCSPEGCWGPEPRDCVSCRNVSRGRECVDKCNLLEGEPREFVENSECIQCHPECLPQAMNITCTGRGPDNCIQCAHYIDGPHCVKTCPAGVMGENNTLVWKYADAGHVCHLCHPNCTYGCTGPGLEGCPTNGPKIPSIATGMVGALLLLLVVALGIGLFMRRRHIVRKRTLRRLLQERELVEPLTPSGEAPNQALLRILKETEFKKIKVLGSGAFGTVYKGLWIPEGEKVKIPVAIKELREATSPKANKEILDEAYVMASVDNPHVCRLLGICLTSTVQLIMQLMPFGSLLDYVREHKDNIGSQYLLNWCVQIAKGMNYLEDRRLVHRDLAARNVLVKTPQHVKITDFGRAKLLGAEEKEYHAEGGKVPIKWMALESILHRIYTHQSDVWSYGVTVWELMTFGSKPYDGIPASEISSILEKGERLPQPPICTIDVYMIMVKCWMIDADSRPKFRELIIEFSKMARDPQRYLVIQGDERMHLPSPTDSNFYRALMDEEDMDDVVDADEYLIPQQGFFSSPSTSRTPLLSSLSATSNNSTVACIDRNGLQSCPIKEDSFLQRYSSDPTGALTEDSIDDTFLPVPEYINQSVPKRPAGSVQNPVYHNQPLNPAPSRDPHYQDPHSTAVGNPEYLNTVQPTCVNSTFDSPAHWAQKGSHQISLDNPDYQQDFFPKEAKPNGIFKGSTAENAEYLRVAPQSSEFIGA

Broadly, the IC50 is the concentration that gives 50% inhibition. Lower therefore signals inhibition by little substance. The molecule `O=C(Nc1nccs1)C(c1ncn2c1C[C@@H](F)C2)n1cc2c(Cl)cc(-c3ccc(N4CCOCC4)cc3)c(Cl)c2n1` (stereo partly drawn) [Example 1, 2-[4,7-Dichloro-6-(4-morpholinophenyl)indazol-2-yl]-2-[(6R)-6-fluoro-6,7-dihydro-5H-pyrrolo[1,2-c]imidazol-1-yl]-N-thiazol-2-yl-acetamide] registered an IC50 of 5 nM. This counts as single-digit nanomolar.

Source of the values: patent US12344613B2, “EGFR inhibitor for the treatment of cancer” (Hoffmann-La Roche Inc., priority 2019, dated 2025).
